Reference: the supplement of paper PMC6045584
± gives the standard deviation of the averaged measurements.

Tests used:
RESVERATROL = compound: Oc1ccc(/C=C/c2cc(O)cc(O)c2)cc1 [RESVERATROL]; experiment: surviving fraction relative to DMSO-only wells; higher = less growth inhibition; conditions: exposure time: 5 days
Method in brief: (§1)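 Viability was scored with CellTiter-Glo luminescence and normalised to the median of DMSO-only wells as surviving fraction. Beforehand, log-phase tumour cell lines were seeded at 250–500 cells per well in 384-well plates, allowed 24 hours, and exposed continuously for five days to inhibitors at 0.5, 1, 5, 10, 50, 100, 500 and 1000 nM. Only lines whose three screens gave replicate Pearson r >0.7 and median Z' >0.3 were kept.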

2-METHOXYESTRADIOL = compound: COc1cc2c(cc1O)CC[C@@H]1[C@@H]2CC[C@]2(C)[C@@H](O)CC[C@@H]12 [2-METHOXYESTRADIOL]; experiment: as above; conditions: exposure time: 5 days
Method in brief: as §1

Row | Test System | surviving fraction (RESVERATROL; 0.5 nM) | surviving fraction (RESVERATROL; 1 nM) | surviving fraction (RESVERATROL; 5 nM) | surviving fraction (RESVERATROL; 10 nM) | surviving fraction (RESVERATROL; 50 nM) | surviving fraction (RESVERATROL; 100 nM) | surviving fraction (RESVERATROL; 500 nM) | surviving fraction (RESVERATROL; 1000 nM) | surviving fraction (2-METHOXYESTRADIOL; 0.5 nM) | surviving fraction (2-METHOXYESTRADIOL; 1 nM) | surviving fraction (2-METHOXYESTRADIOL; 5 nM) | surviving fraction (2-METHOXYESTRADIOL; 10 nM) | surviving fraction (2-METHOXYESTRADIOL; 50 nM) | surviving fraction (2-METHOXYESTRADIOL; 100 nM) | surviving fraction (2-METHOXYESTRADIOL; 500 nM) | surviving fraction (2-METHOXYESTRADIOL; 1000 nM)
1 | DU4475 BREAST | 1 ± 0.13 | 0.973 ± 0.051 | 0.967 ± 0.13 | 0.964 ± 0.074 | 0.985 ± 0.1 | 1.05 ± 0.17 | 1.02 ± 0.047 | 1.1 ± 0.22 | 0.835 ± 0.14 | 0.807 ± 0.045 | 0.849 ± 0.11 | 0.901 ± 0.23 | 0.782 ± 0.17 | 0.746 ± 0.066 | 0.452 ± 0.12 | 0.114 ± 0.044
2 | H23 LUNG | 0.99 ± 0.019 | 1.06 ± 0.051 | 1.02 ± 0.071 | 1.05 ± 0.023 | 0.994 ± 0.044 | 1.07 ± 0.036 | 1 ± 0.034 | 1.11 ± 0.096 | 0.97 ± 0.025 | 0.949 ± 0.017 | 1 ± 0.035 | 0.963 ± 0.039 | 0.975 ± 0.06 | 1.03 ± 0.021 | 0.749 ± 0.019 | 0.265 ± 0.004
3 | HCC78 LUNG | 0.894 ± 0.15 | 0.894 ± 0.065 | 0.983 ± 0.035 | 1.05 ± 0.15 | 1.12 ± 0.2 | 1.03 ± 0.1 | 0.901 ± 0.26 | 0.904 ± 0.1 | 0.781 ± 0.22 | 0.786 ± 0.076 | 0.866 ± 0.094 | 1.02 ± 0.24 | 0.827 ± 0.14 | 0.759 ± 0.14 | 0.298 ± 0.087 | 0.0893 ± 0.036
4 | HCC202 BREAST | 1 ± 0.23 | 1.18 ± 0.11 | 1.14 ± 0.059 | 1.06 ± 0.05 | 1.75 ± 0.46 | 1.49 ± 0.42 | 1.32 ± 0.14 | 1.33 ± 0.39 | 1.1 ± 0.39 | 1.22 ± 0.36 | 1.12 ± 0.29 | 1.02 ± 0.19 | 1.23 ± 0.062 | 1.04 ± 0.27 | 0.713 ± 0.32 | 0.564 ± 0.23
5 | HCC1395 BREAST | 0.968 ± 0.099 | 1.07 ± 0.075 | 1.1 ± 0.069 | 1.28 ± 0.16 | 1.02 ± 0.094 | 1.21 ± 0.1 | 1.05 ± 0.09 | 0.985 ± 0.15 | 0.926 ± 0.081 | 1.15 ± 0.08 | 1.14 ± 0.035 | 1.25 ± 0.085 | 1.24 ± 0.027 | 1.22 ± 0.072 | 1.17 ± 0.083 | 0.907 ± 0.088
6 | HCC1806 BREAST | 1.04 ± 0.073 | 1.04 ± 0.072 | 1.18 ± 0.14 | 1.18 ± 0.051 | 1.24 ± 0.049 | 1.23 ± 0.044 | 0.963 ± 0.029 | 0.963 ± 0.19 | 0.946 ± 0.076 | 1.02 ± 0.052 | 1.03 ± 0.083 | 1.11 ± 0.052 | 1.06 ± 0.053 | 1.15 ± 0.079 | 1.06 ± 0.11 | 0.808 ± 0.036
7 | HCC1954 BREAST | 1.06 ± 0.055 | 1.12 ± 0.012 | 1.21 ± 0.065 | 1.39 ± 0.098 | 1.03 ± 0.025 | 1.25 ± 0.19 | 0.997 ± 0.065 | 0.934 ± 0.064 | 0.93 ± 0.027 | 1.09 ± 0.072 | 1.049 ± 0.0014 | 1.05 ± 0.12 | 0.845 ± 0.019 | 0.742 ± 0.1 | 0.716 ± 0.034 | 0.515 ± 0.029
8 | HCT15 LARGE INTESTINE | 0.982 ± 0.12 | 1.03 ± 0.12 | 1.02 ± 0.1 | 1.02 ± 0.093 | 1.05 ± 0.08 | 1.06 ± 0.095 | 0.968 ± 0.15 | 1.08 ± 0.11 | 0.947 ± 0.027 | 0.926 ± 0.028 | 0.959 ± 0.057 | 0.914 ± 0.04 | 1.01 ± 0.021 | 0.929 ± 0.1 | 0.0957 ± 0.014 | 0.0547 ± 0.0085
9 | HELA CERVIX | 1.04 ± 0.034 | 1.12 ± 0.036 | 1.06 ± 0.096 | 1.08 ± 0.023 | 1.09 ± 0.066 | 1.12 ± 0.037 | 1.12 ± 0.092 | 1.21 ± 0.066 | 0.982 ± 0.043 | 1 ± 0.031 | 0.985 ± 0.013 | 0.938 ± 0.04 | 1.06 ± 0.064 | 1.11 ± 0.077 | 0.593 ± 0.045 | 0.0965 ± 0.0045
10 | HOS BONE | 1.016 ± 0.0053 | 1.05 ± 0.03 | 1.018 ± 0.009 | 1.02 ± 0.021 | 1.03 ± 0.012 | 1.06 ± 0.036 | 1.05 ± 0.024 | 1.07 ± 0.025 | 0.996 ± 0.013 | 0.992 ± 0.029 | 1.02 ± 0.02 | 1.004 ± 0.0095 | 1.04 ± 0.015 | 1.05 ± 0.025 | 0.96 ± 0.02 | 0.158 ± 0.011
11 | HOSMNG BONE | 0.83 ± 0.15 | 0.872 ± 0.023 | 0.832 ± 0.1 | 0.722 ± 0.061 | 0.827 ± 0.11 | 0.877 ± 0.11 | 0.878 ± 0.072 | 0.924 ± 0.1 | 0.97 ± 0.12 | 0.966 ± 0.034 | 0.957 ± 0.1 | 1 ± 0.046 | 1.05 ± 0.11 | 1.03 ± 0.084 | 0.652 ± 0.053 | 0.168 ± 0.011
12 | HSSYII SYNOVIAL | 0.951 ± 0.067 | 1.01 ± 0.029 | 1.01 ± 0.015 | 0.995 ± 0.016 | 0.967 ± 0.04 | 0.971 ± 0.079 | 0.9 ± 0.03 | 0.917 ± 0.043 | 0.901 ± 0.024 | 0.926 ± 0.01 | 0.923 ± 0.043 | 0.997 ± 0.046 | 0.915 ± 0.018 | 0.764 ± 0.013 | 0.139 ± 0.0043 | 0.0593 ± 0.0049
13 | HT1080 SOFT TISSUE | 1.03 ± 0.031 | 1.03 ± 0.019 | 0.995 ± 0.024 | 1.04 ± 0.033 | 0.984 ± 0.017 | 1.03 ± 0.03 | 1.05 ± 0.013 | 1.1 ± 0.015 | 1.01 ± 0.011 | 1.02 ± 0.018 | 1.05 ± 0.016 | 0.987 ± 0.058 | 1.01 ± 0.043 | 0.999 ± 0.033 | 0.756 ± 0.049 | 0.313 ± 0.028
14 | HU09 BONE | 0.972 ± 0.079 | 1.08 ± 0.1 | 1.13 ± 0.1 | 1.07 ± 0.077 | 1.11 ± 0.15 | 1.1 ± 0.079 | 1.05 ± 0.12 | 1.06 ± 0.038 | 1.02 ± 0.055 | 0.959 ± 0.03 | 1.02 ± 0.024 | 1.1 ± 0.1 | 1.12 ± 0.081 | 1.08 ± 0.095 | 0.512 ± 0.015 | 0.159 ± 0.029
15 | HUO3N1 BONE | 1.01 ± 0.036 | 1.07 ± 0.037 | 1.04 ± 0.034 | 1.06 ± 0.06 | 1.09 ± 0.035 | 1.1 ± 0.037 | 1.07 ± 0.029 | 1.01 ± 0.067 | 1.01 ± 0.012 | 0.994 ± 0.037 | 1.05 ± 0.05 | 1.03 ± 0.057 | 1.07 ± 0.022 | 1.02 ± 0.041 | 0.87 ± 0.059 | 0.537 ± 0.03
16 | JIMT1 BREAST | 1.03 ± 0.038 | 1.04 ± 0.042 | 1.05 ± 0.047 | 1.01 ± 0.029 | 1.01 ± 0.016 | 1.05 ± 0.027 | 1 ± 0.035 | 1.05 ± 0.021 | 0.985 ± 0.032 | 1.04 ± 0.029 | 1.03 ± 0.023 | 1 ± 0.031 | 1.09 ± 0.013 | 1.05 ± 0.021 | 0.762 ± 0.053 | 0.403 ± 0.045
